In patent US20110053907A1, “SUBSTITUTED PYRIMIDINES AND TRIAZINES AND THEIR USE IN CANCER THERAPY” (Auckland UniServices Limited, priority 2008, published 2011):
pIC50: −log10 of the molar value.

Tests used:
[1] = molecular target: p110α/p85 (Homo sapiens, UniProt P42336); assay: Reversible inhibition of isolated enzyme, lipid kinase assay; format: biochemical; conditions: recombinant enzyme, 100 μM ATP, 1 hr, average of two experiments
Experimental: Compounds were evaluated for their ability to inhibit Class I PI 3-kinase enzymes p110δ/p85, p110α/p85, and p110β/p85. Reaction mixtures comprising 0.1 μg of a recombinant enzyme, 10 μg of L-α-phosphatidylinositol, and 2× Lipid Kinase Buffer (40 mM Tris-HCl, pH 7.4, 200 mM NaCl, 1 mM EDTA), which contains either DMSO only as a control or the test compound in DMSO (the final DMSO concentration is 1%), were activated by the addition of an ATP mix (5 mM MgCl2, 100 μM ATP, and 0.1 μL [γ^33P]ATP). Reactions were incubated at room temperature for 1 hr, and then stopped by the addition of 1M HCl. The lipids were then extracted using a two step procedure. Firstly, 200 μL of chloroform/methanol (1:1) was added, the biphasic reactions mixed and centrifuged briefly, and the inorganic phase was removed and discarded. Following this, 80 μL of methanol:HCl (1:1) was added and the same procedure followed. The organic phase (70 μL) was then transferred to a clean 1.6 mL tube and the reactions were dried using a Speedvac, with no heating, for 30 min. The reactions were spotted onto TLC plates (Merck Ltd) and developed for 1 hr in propanol-1:2 M acetic acid (13:7). The TLC plates were then dried at room temperature and quantified using a phosphorimager (StormImager, Amersham). Nine compound concentrations were used for each test compound to determine its IC50 value. Each experiment was performed twice and the average IC50 value is used herein.

Chain of p110α/p85 (P42336 whole entry): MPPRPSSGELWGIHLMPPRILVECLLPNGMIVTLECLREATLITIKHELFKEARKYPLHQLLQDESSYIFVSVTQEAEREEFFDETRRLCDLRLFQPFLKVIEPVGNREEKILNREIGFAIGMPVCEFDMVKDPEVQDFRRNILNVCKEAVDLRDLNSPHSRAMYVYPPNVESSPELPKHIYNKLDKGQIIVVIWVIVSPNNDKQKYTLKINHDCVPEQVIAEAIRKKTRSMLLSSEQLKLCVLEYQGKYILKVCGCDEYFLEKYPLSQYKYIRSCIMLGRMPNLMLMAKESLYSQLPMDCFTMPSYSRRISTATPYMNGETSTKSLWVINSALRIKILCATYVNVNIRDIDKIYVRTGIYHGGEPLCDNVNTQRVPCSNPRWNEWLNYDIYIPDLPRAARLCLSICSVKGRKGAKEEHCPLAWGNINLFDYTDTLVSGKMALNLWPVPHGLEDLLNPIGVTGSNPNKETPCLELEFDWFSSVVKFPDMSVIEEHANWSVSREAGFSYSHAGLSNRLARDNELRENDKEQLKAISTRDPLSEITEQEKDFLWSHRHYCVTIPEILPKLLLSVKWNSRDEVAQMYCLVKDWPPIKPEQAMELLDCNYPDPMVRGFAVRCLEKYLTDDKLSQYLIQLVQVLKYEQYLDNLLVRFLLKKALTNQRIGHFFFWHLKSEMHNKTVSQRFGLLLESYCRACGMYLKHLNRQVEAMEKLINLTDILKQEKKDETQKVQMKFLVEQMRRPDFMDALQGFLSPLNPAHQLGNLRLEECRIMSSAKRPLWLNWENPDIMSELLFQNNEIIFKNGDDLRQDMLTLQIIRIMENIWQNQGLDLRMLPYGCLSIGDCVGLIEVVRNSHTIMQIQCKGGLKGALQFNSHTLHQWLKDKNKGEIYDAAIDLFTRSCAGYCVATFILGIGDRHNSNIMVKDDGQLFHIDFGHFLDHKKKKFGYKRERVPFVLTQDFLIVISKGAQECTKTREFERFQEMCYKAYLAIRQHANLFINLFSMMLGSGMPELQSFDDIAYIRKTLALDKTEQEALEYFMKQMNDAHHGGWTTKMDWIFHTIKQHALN
Chain of p110α/p85 (P27986 whole entry partner): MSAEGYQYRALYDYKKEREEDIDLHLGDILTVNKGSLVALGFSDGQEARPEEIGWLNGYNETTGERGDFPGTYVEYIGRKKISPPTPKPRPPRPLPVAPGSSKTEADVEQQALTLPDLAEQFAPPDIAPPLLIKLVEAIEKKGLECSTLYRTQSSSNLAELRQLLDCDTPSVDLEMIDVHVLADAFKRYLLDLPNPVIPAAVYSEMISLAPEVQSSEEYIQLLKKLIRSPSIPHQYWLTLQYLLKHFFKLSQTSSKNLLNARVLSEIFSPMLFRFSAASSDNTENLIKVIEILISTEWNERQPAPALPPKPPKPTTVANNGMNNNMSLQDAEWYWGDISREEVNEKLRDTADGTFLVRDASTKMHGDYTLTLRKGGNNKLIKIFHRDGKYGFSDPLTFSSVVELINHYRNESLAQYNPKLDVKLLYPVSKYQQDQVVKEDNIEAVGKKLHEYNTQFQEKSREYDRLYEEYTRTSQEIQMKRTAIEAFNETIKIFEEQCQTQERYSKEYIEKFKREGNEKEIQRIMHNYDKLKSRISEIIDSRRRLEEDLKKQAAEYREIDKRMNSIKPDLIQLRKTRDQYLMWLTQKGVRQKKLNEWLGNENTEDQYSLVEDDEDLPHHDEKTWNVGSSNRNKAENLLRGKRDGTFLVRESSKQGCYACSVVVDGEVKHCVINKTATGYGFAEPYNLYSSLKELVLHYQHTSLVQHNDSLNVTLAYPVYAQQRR

Row | SMILES | pIC50 [1] | melting point [°C]
1 | COc1cccc2c1nc(C(F)F)n2-c1nc(N2CCOCC2)nc(N(C)C2CCN(S(=O)(=O)CCl)CC2)n1 [Example 21, N-{1-[(chloromethyl)sulfonyl]-4-piperidinyl}-4-[2-(difluoromethyl)-4-methoxy-1H-benzimidazol-1-yl]-N-methyl-6-(4-morpholinyl)-1,3,5-triazin-2-amine] | > 7.00 | 212 to 215
2 | COc1cccc2c1nc(C(F)F)n2-c1nc(N2CCOCC2)nc(N2CCC(NC(=O)CCl)CC2)n1 [Example 22, 2-chloro-N-{1-[4-[2-(difluoromethyl)-4-methoxy-1H-benzimidazol-1-yl]-6-(4-morpholinyl)-1,3,5-triazin-2-yl]-4-piperidinyl}acetamide] | > 7.00 | 252 to 254
3 | COc1cccc2c1nc(C(F)F)n2-c1nc(N2CCOCC2)nc(N2CCC(N(C)C(=O)CCl)CC2)n1 [Example 23, 2-chloro-N-{1-[4-[2-(difluoromethyl)-4-methoxy-1H-benzimidazol-1-yl]-6-(4-morpholinyl)-1,3,5-triazin-2-yl]-4-piperidinyl}-N-methylacetamide] | > 7.00 | 206 to 208
4 | COc1cccc2c1nc(C(F)F)n2-c1nc(N2CCOCC2)nc(N2CC[C@@H](NC(=O)CCl)C2)n1 [Example 25, 2-chloro-N-{(3R)-1-[4-[2-(difluoromethyl)-4-methoxy-1H-benzimidazol-1-yl]-6-(4-morpholinyl)-1,3,5-triazin-2-yl]pyrrolidinyl}acetamide] | > 7.00 | 270 to 275
5 | COc1cccc2c1nc(C(F)F)n2-c1nc(N2CCOCC2)nc(N2CC[C@@H](N(C)C(=O)CCl)C2)n1 [Example 27, 2-chloro-N-{(3R)-1-[4-[2-(difluoromethyl)-4-methoxy-1H-benzimidazol-1-yl]-6-(4-morpholinyl)-1,3,5-triazin-2-yl]pyrrolidinyl}-N-methylacetamide] | > 7.00 | 231 to 233
6 | COc1cccc2c1nc(C(F)F)n2-c1nc(N2CCOCC2)nc(N2CC[C@H](N(C)C(=O)CCl)C2)n1 [Example 28, 2-chloro-N-{(3S)-1-[4-[2-(difluoromethyl)-4-methoxy-1H-benzimidazol-1-yl]-6-(4-morpholinyl)-1,3,5-triazin-2-yl]pyrrolidinyl}-N-methylacetamide] | > 7.00 | 230 to 232
7 | COc1cccc2c1nc(C(F)F)n2-c1nc(N[C@@H]2CCN(C(=O)CCl)C2)nc(N2CCOCC2)n1 [Example 29, N-[(3R)-1-(chloroacetyl)pyrrolidinyl]-4-[2-(difluoromethyl)-4-methoxy-1H-benzimidazol-1-yl]-6-(4-morpholinyl)-1,3,5-triazin-2-amine] | > 7.00 | 208 to 210
8 | COc1cccc2c1nc(C(F)F)n2-c1nc(N[C@H]2CCN(C(=O)CCl)C2)nc(N2CCOCC2)n1 [Example 30, N-[(3S)-1-(chloroacetyl)pyrrolidinyl]-4-[2-(difluoromethyl)-4-methoxy-1H-benzimidazol-1-yl]-6-(4-morpholinyl)-1,3,5-triazin-2-amine] | > 7.00 | 208 to 211
9 | COc1cccc2c1nc(C(F)F)n2-c1nc(N2CCOCC2)nc(N(C)[C@@H]2CCN(C(=O)CCl)C2)n1 [Example 31, N-[(3R)-1-(chloroacetyl)pyrrolidinyl]-4-[2-(difluoromethyl)-4-methoxy-1H-benzimidazol-1-yl]-N-methyl-6-(4-morpholinyl)-1,3,5-triazin-2-amine] | > 7.00 | 219 to 221
10 | COc1cccc2c1nc(C(F)F)n2-c1nc(N2CCOCC2)nc(N(C)[C@H]2CCN(C(=O)CCl)C2)n1 [Example 32, N-[(3S)-1-(chloroacetyl)pyrrolidinyl]-4-[2-(difluoromethyl)-4-methoxy-1H-benzimidazol-1-yl]-N-methyl-6-(4-morpholinyl)-1,3,5-triazin-2-amine] | > 7.00 | 219 to 221
11 | COc1cccc2c1nc(C(F)F)n2-c1nc(N2CCOCC2)nc(N2CCC[C@@H](NC(=O)CCl)C2)n1 [Example 33] | > 7.00 | 231 to 233
12 | COc1cccc2c1nc(C(F)F)n2-c1nc(N2CCOCC2)nc(N2CCC[C@H](NC(=O)CCl)C2)n1 [Example 34, 2-chloro-N-{(3S)-1-[4-[2-(difluoromethyl)-4-methoxy-1H-benzimidazol-1-yl]-6-(4-morpholinyl)-1,3,5-triazin-2-yl]piperidinyl}acetamide] | > 7.00 | 227 to 229
13 | COc1cccc2c1nc(C(F)F)n2-c1nc(N2CCOCC2)nc(N2CCC[C@@H](N(C)C(=O)CCl)C2)n1 [Example 35, 2-chloro-N-{(3R)-1-[4-[2-(difluoromethyl)-4-methoxy-1H-benzimidazol-1-yl]-6-(4-morpholinyl)-1,3,5-triazin-2-yl]piperidinyl}-N-methylacetamide] | > 7.00 | 201 to 203
14 | COc1cccc2c1nc(C(F)F)n2-c1nc(N[C@@H]2CCCN(C(=O)CCl)C2)nc(N2CCOCC2)n1 [Example 37] | > 7.00 | 190 to 192
15 | COc1cccc2c1nc(C(F)F)n2-c1nc(N2CCOCC2)nc(N2CC(NC(=O)CCl)C2)n1 [Example 41, 2-chloro-N-{1-[4-[2-(difluoromethyl)-4-methoxy-1H-benzimidazol-1-yl]-6-(4-morpholinyl)-1,3,5-triazin-2-yl]-3-azetidinyl}acetamide] | > 7.00 | 272 to 275
16 | COc1cccc2c1nc(C(F)F)n2-c1nc(N2CCOCC2)nc(N2CC(N(C)C(=O)CCl)C2)n1 [Example 42, 2-chloro-N-{1-[4-[2-(difluoromethyl)-4-methoxy-1H-benzimidazol-1-yl]-6-(4-morpholinyl)-1,3,5-triazin-2-yl]-3-azetidinyl}-N-methylacetamide] | > 7.00 | 233 to 236
17 | COc1cccc2c1nc(C(F)F)n2-c1nc(NC2CN(C(=O)CCl)C2)nc(N2CCOCC2)n1 [Example 43, N-[1-(chloroacetyl)-3-azetidinyl]-4-[2-(difluoromethyl)-4-methoxy-1H-benzimidazol-1-yl]-6-(4-morpholinyl)-1,3,5-triazin-2-amine] | > 7.00 | 219 to 221
18 | COc1cccc2c1nc(C(F)F)n2-c1nc(N2CCOCC2)nc(N(C)C2CN(C(=O)CCl)C2)n1 [Example 44, N-[1-(chloroacetyl)-3-azetidinyl]-4-[2-(difluoromethyl)-4-methoxy-1H-benzimidazol-1-yl]-N-methyl-6-(4-morpholinyl)-1,3,5-triazin-2-amine] | > 7.00 | 220 to 222
19 | COc1cccc2c1nc(C(F)F)n2-c1nc(OC2CCN(C(=O)CCl)CC2)nc(N2CCOCC2)n1 [Example 45, 1-[4-{[1-(chloroacetyl)-4-piperidinyl]oxy}-6-(4-morpholinyl)-1,3,5-triazin-2-yl]-2-(difluoromethyl)-4-methoxy-1H-benzimidazole] | > 7.00 | 170 to 172
20 | COc1cccc2c1nc(C(F)F)n2-c1nc(N2CCOCC2)c2cnn(C3CCN(S(=O)(=O)CCl)CC3)c2n1 [Example 48, 1-{1-[(chloromethyl)sulfonyl]-4-piperidinyl}-6-[2-(difluoromethyl)-4-methoxy-1H-benzimidazol-1-yl]-4-(4-morpholinyl)-1H-pyrazolo[3,4-d]pyrimidine] | > 7.00 | 250 to 253
